Assay results taken from patent US11564928B1, “Cannabinoid receptor type 2 (CB2) modulators and uses thereof” (Teon Therapeutics, Inc., priority 2020, dated 2023).
Read-outs that look alike come from different tables or passages of the source.

What was measured:
human CB2 receptor [1] = molecular target: T1, human CB2 receptor (Homo sapiens (Human), UniProt P34972); experiment: CB2 receptor binding assay ([3H]CP-55,940 displacement, HEK-293 membranes); details: membranes of HEK-293 cells with human recombinant CB2R, [3H]CP-55,940, read-out: CB2 IC50
human CB2 receptor [2] = molecular target: T1, human CB2 receptor; experiment: CB2 receptor cAMP assay (DiscoverX HitHunter cAMP XS+); type: cell-based
Experimental: cAMP Hunter CHO-K-1 cell lines expressing human CB2 receptor (Eurofins) were expanded from freezer stocks according to standard procedures. Cells were seeded in a total volume of 20 μL into white walled, 384-well microplates and incubated at 37° C. for the appropriate time prior to testing. cAMP modulation in agonist, inverse agonist or antagonist format was determined using the DiscoverX HitHunter cAMP XS+ assay (Eurofins). For agonist determination, cells were incubated with sample in the presence of EC80 forskolin to induce response. Media was aspirated from cells and replaced with 15 μL 2:1 HBSS/10 mM Hepes: cAMP XS+Ab reagent. Intermediate dilution of sample stocks was performed to generate 4× sample in assay buffer containing 4× EC80 forskolin. 5 μL of 4× sample was added to cells and incubated at 37° C. or room temperature for 30 or 60 minutes. Final assay vehicle concentration was 1%. For inverse agonist determination, cells were preincubated with sample in the presence of EC20 forskolin. Media was aspirated from cells and replaced with 15 μL, 2:1 HBSS/10 mM Hepes: cAMP XS+Ab reagent. Intermediate dilution of sample stocks was performed to generate 4× sample in assay buffer containing 4× EC20 forskolin. 5 μL of 4× sample was added to cells and incubated at 37° C. or room temperature for 30 or 60 minutes. Final assay vehicle concentration was 1%. For antagonist determination, cells were pre-incubated with sample followed by agonist challenge at the EC80 concentration. Media was aspirated from cells and replaced with 10 μL 1:1 HBSS/Hepes: cAMP XS+Ab reagent. 5 μL of 4× compound was added to the cells and incubated at 37° C. or room temperature for 30 minutes. 5 μL of 4× EC80 agonist was added to cells and incubated at 37° C. or room temperature for 30 or 60 minutes. EC80 forksolin was included. After appropriate compound incubation, assay signal was generated through incubation with 20 μL cAMP XS+ED/CL lysis cocktail for one hour followed by incubation with 20 μL, cAMP XS+EA reagent for three hours at room temperature. Microplates were read following signal generation with a PerkinElmer Envision instrument for chemiluminescent signal detection. Compound activity was analyzed using CBIS data analysis suite (ChemInnovation, CA). For agonist mode assay, percentage activity is calculated using the following formula: % Activity=100%×(1−(mean RLU of test sample−mean RLU of MAX control)/(mean RLU of vehicle control−mean RLU of MAX control)). For inverse agonist mode assay, percentage activity is calculated using the following formula: % Inverse Agonist Activity=100%×((mean RLU of test sample−mean RLU of EC20 forskolin)/(mean RLU of forskolin positive control−mean RLU of EC20 control)). For antagonist mode assay, percentage inhibition is calculated using the following formula: % Inhibition=100%×(mean RLU of test sample−mean RLU of EC80 control)/(mean RLU of forskolin positive control−mean RLU of EC80 control). Data are analyzed and IC50 is calculated using GraphPad Prism 5 and the model “log(inhibitor) vs. response—Variable slope”.

human recombinant CB1R = human recombinant CB1R (Homo sapiens (Human), UniProt P21554); experiment: CB1 receptor binding assay ([3H]CP-55,940 displacement, HEK-293 membranes); details: membranes of HEK-293 cells with human recombinant CB1R, [3H]CP-55,940, read-out: CB1 IC50
How it was run: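 Displacement of [3H]CP-55,940 was measured on human CB1R- or CB2R-transfected HEK-293 membranes after 120 min at 37 °C, in duplicate, with filtration and scintillation counting. For CB2R, incubation used Tris-HCl 50 mM, MgCl2 5 mM, CaCl2 1 mM, BSA 0.2%, pH 7.4. Ki values were derived from variable-slope IC50 fits using Cheng–Prusoff.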

[3] = CHO-K1, read-out: Max Stimulation %
[4] = cAMP Hunter CHO-K-1 cells expressing human CB2 receptor, read-out: cAMP IC50

human recombinant CB1R, sequence (P21554 whole entry): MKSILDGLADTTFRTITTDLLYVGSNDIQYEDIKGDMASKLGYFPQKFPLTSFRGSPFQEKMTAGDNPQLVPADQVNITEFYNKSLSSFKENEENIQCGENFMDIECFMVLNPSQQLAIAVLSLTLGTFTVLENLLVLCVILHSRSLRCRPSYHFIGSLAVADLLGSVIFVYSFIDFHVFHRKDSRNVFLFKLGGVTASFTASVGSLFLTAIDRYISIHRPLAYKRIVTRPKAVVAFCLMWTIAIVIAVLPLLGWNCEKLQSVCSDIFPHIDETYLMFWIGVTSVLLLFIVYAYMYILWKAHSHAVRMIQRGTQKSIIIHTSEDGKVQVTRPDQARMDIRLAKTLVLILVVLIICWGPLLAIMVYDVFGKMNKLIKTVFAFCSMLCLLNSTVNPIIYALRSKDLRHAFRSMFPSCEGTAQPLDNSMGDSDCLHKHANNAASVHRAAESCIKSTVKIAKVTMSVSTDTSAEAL
T1 sequence (P34972 whole entry): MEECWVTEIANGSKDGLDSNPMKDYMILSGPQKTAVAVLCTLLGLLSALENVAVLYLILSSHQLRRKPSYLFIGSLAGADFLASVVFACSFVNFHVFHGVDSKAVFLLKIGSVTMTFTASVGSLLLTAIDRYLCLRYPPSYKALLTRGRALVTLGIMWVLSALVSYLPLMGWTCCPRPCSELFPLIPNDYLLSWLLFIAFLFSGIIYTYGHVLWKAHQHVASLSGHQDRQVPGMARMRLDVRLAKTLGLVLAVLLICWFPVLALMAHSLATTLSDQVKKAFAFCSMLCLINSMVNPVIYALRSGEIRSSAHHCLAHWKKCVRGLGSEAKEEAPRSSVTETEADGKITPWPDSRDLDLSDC

| Emax (human CB2 receptor [2]; CHO-K1, cAMP Hunter CHO-K-1 cells expressing human CB2 receptor, read-out: Max Stimulation %) [%] | SMILES | IC50 (human CB2 receptor [1]) [nM] | IC50 (human CB2 receptor [2]) [nM] | Emax (human CB2 receptor [2]; [3]) [%] | IC50 (human recombinant CB1R) [nM] | IC50 (human CB2 receptor [2]; [4]) [nM] | IC50 (human CB2 receptor [1]; class symbols) [nM] | IC50 (human recombinant CB1R; class symbols) [nM] |
| --- | --- | --- | --- | --- | --- | --- | --- | --- |
|  | CC1CCC(NC(=O)c2c(O)c3cc(-c4ccc(OC(F)F)cc4)cnc3n(CCN3CCOCC3)c2=O)CC1 (stereo not shown) [Compound 15, 6-(4-(difluoromethoxy)phenyl)-4-hydroxy-N-(4-methylcyclohexyl)-1-(2-morpholinoethyl)-2-oxo-1,2-dihydro-1,8-naphthyridine-3-carboxamide] | 8.8 | 21 | 75 | > 10000 |  |  |  |
|  | O=C(NC12CC(C1)C2)c1c(O)c2cc(-c3ccc(F)cc3)cnc2n(CCN2CCOCC2)c1=O [Compound 8, N-(bicyclo[1.1.1]pentan-1-yl)-6-(4-fluorophenyl)-4-hydroxy-1-(2-morpholinoethyl)-2-oxo-1,2-dihydro-1,8-naphthyridine-3-carboxamide] | 20 | 40 | 32 | > 10000 |  |  |  |
|  | N#Cc1ccc(-c2cnc3c(c2)cc(C(=O)NC24CC(C2)C4)c(=O)n3CCN2CCOCC2)nc1 [Compound 59, N-(bicyclo[1.1.1]pentan-1-yl)-6-(5-cyanopyridin-2-yl)-1-(2-morpholinoethyl)-2-oxo-1,2-dihydro-1,8-naphthyridine-3-carboxamide] | 130 |  | 75 | > 10000 | 119 |  |  |
|  | CC(C)c1cnc2c(c1)cc(C(=O)N[C@H](C)c1ccc(C#N)cc1)c(=O)n2Cc1ccc(F)cc1 [Compound 85, (R)—N-(1-(4-cyanophenyl)ethyl)-1-(4-fluorobenzyl)-6-isopropyl-2-oxo-1,2-dihydro-1,8-naphthyridine-3-carboxamide] | 7.9 | 0.5 | 93 | 605 |  |  |  |
|  | O=C(NC1CC2(CCC2)C1)c1cc2cc(-c3ccc4c(c3)OCCO4)cnc2n(CCN2CCOCC2)c1=O [Compound 33, 6-(2,3-dihydrobenzo[b][1,4]dioxin-6-yl)-1-(2-morpholinoethyl)-2-oxo-N-(spiro[3.3]heptan-2-yl)-1,2-dihydro-1,8-naphthyridine-3-carboxamide] | 4 | 6 |  | > 10000 |  |  |  |
|  | CC1CCC(NC(=O)c2c(O)c3cc(-c4ccc(F)cc4)cnc3n(CCN3CCOCC3)c2=O)CC1 (stereo not shown) [Compound 5, 6-(4-fluorophenyl)-4-hydroxy-N-(4-methylcyclohexyl)-1-(2-morpholinoethyl)-2-oxo-1,2-dihydro-1,8-naphthyridine-3-carboxamide] | 6.5 | 70 | 75 | 3870 |  |  |  |
|  | O=C(NC12CC(C1)C2)c1cc2cc(C3CC3)cnc2n(Cc2ccc(F)cc2)c1=O [Compound 83, N-(bicyclo[1.1.1]pentan-1-yl)-6-cyclopropyl-1-(4-fluorobenzyl)-2-oxo-1,2-dihydro-1,8-naphthyridine-3-carboxamide] |  | 5 | 93 |  |  | < 100 | > 1000 |
|  | O=C(NC1CC2(CCC2)C1)c1cc2cc(Br)cnc2n(Cc2ccc(F)cn2)c1=O [Compound 99, 6-bromo-1-((5-fluoropyridin-2-yl)methyl)-2-oxo-N-(spiro[3.3]heptan-2-yl)-1,2-dihydro-1,8-naphthyridine-3-carboxamide] | 12 | 53 | 89 | > 10000 |  |  |  |
|  | CC1CCC(NC(=O)c2cc3cc(-c4ccccn4)cnc3n(CCN3CCOCC3)c2=O)CC1 (stereo not shown) [Compound 62, N-(4-methylcyclohexyl)-1-(2-morpholinoethyl)-2-oxo-6-(pyridin-2-yl)-1,2-dihydro-1,8-naphthyridine-3-carboxamide] |  | 13 | 33 |  |  | < 100 | > 1000 |
|  | C[C@@H](NC(=O)c1cc2cc(C3COC3)cnc2n(Cc2ccc(F)cc2)c1=O)c1ccc(C#N)cc1 [Compound 101, (R)—N-(1-(4-cyanophenyl)ethyl)-1-(4-fluorobenzyl)-6-(oxetan-3-yl)-2-oxo-1,2-dihydro-1,8-naphthyridine-3-carboxamide] | 7.6 | 21 | 71 | 2110 |  |  |  |
|  | CC(C)c1cnc2c(c1)cc(C(=O)N[C@H](C)c1ccc(F)cc1)c(=O)n2Cc1ccc(F)cc1 [Compound 89, (R)-1-(4-fluorobenzyl)-N-(1-(4-fluorophenyl)ethyl)-6-isopropyl-2-oxo-1,2-dihydro-1,8-naphthyridine-3-carboxamide] |  | 7 | 92 |  |  | < 100 | > 1000 |
|  | COc1ccc(-c2cnc3c(c2)cc(C(=O)NCc2ccc(F)cc2)c(=O)n3CCN2CCOCC2)cc1 [Compound 105, N-(4-fluorobenzyl)-6-(4-methoxyphenyl)-1-(2-morpholinoethyl)-2-oxo-1,2-dihydro-1,8-naphthyridine-3-carboxamide] | 14 | 28 | 116 | > 10000 |  |  |  |
|  | N#Cc1ccc(-c2cnc3c(c2)cc(C(=O)NC2CC4(CCC4)C2)c(=O)n3CCN2CCOCC2)nc1 [Compound 36, 6-(5-cyanopyridin-2-yl)-1-(2-morpholinoethyl)-2-oxo-N-(spiro[3.3]heptan-2-yl)-1,2-dihydro-1,8-naphthyridine-3-carboxamide] | 5 | 13 | 89 | > 10000 |  |  |  |
| 85 | CC(NC(=O)c1cc2cc(-c3ccc(OC(F)F)cc3)cnc2n(CCN2CCOCC2)c1=O)c1ccc(F)cc1 (stereo not shown) [Compound 53, 6-(4-(difluoromethoxy)phenyl)-N-(1-(4-fluorophenyl)ethyl)-1-(2-morpholinoethyl)-2-oxo-1,2-dihydro-1,8-naphthyridine-3-carboxamide] |  |  |  |  | 2 | < 100 | > 1000 |
|  | N#Cc1ccc(-c2cnc3c(c2)cc(C(=O)NC2CC4(CCC4)C2)c(=O)n3Cc2ccc(F)cc2)nc1 [Compound 69, 6-(5-cyanopyridin-2-yl)-1-(4-fluorobenzyl)-2-oxo-N-(spiro[3.3]heptan-2-yl)-1,2-dihydro-1,8-naphthyridine-3-carboxamide] |  | 21 | 79 |  |  | < 100 | > 1000 |
|  | CC(NC(=O)c1cc2cc(-c3ccc(C#N)cc3)cnc2n(CCN2CCOCC2)c1=O)c1ccc(F)cc1 (stereo not shown) [Compound 45, 6-(4-cyanophenyl)-N-(1-(4-fluorophenyl)ethyl)-1-(2-morpholinoethyl)-2-oxo-1,2-dihydro-1,8-naphthyridine-3-carboxamide] |  | 15 | 70 |  |  | < 100 | > 1000 |
|  | CC1CCC(NC(=O)c2cc3cc(-c4ncccn4)cnc3n(CCN3CCOCC3)c2=O)CC1 (stereo not shown) [Compound 63, N-(4-methylcyclohexyl)-1-(2-morpholinoethyl)-2-oxo-6-(pyrimidin-2-yl)-1,2-dihydro-1,8-naphthyridine-3-carboxamide] |  |  |  |  | > 1000 | < 100 | > 1000 |
|  | COc1ccc(-c2cnc3c(c2)cc(C(=O)NC2CC4(COC4)C2)c(=O)n3CCN2CCOCC2)cc1 [Compound 31, 6-(4-methoxyphenyl)-1-(2-morpholinoethyl)-2-oxo-N-(2-oxaspiro[3.3]heptan-6-yl)-1,2-dihydro-1,8-naphthyridine-3-carboxamide] |  |  | 78 |  | 127 | < 100 | > 1000 |
